Data from the METLIN SMRT retention time set (Domingo-Almenara et al. 2019).

Experiment: gradient 5% acetonitrile 3 min, to 50% in 2 min, to 85% in 15 min, held 3 min, 100 µL/min
Conditions: column: Zorbax Extend-C18 2.1 x 50 mm; eluents: water / acetonitrile, 0.1% formic acid
In short: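 Over 3 months, pure standards in mixtures of ~100 molecules were run by HPLC coupled to a quadrupole time-of-flight mass spectrometer in positive and negative ionization mode. The column was a Zorbax Extend-C18 (2.1 × 50 mm, 1.8 μm) at 100 μL/min, eluted with water and acetonitrile each holding 0.1% formic acid, with 40 μL dead and 900 μL dwell volumes. Retention time was determined from adduct peaks chosen by software and checked manually.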

| SMILES | RP-LC retention time [s] |
| --- | --- |
| COc1cc(-c2nc(Cn3ccn4nc(-c5ccccc5)cc4c3=O)c(C)o2)cc(OC)c1OC | 990 |
| COc1ccc(C(F)(F)F)cc1NC(=O)CCCSc1ccc(NC(C)=O)nn1 | 785 |
| COc1ccc(OC)c(S(=O)(=O)N2CCC(N3C[C@H](OC)[C@@H]3c3cccnc3)CC2)c1 | 619 |
| COc1ccc(NC(=O)/C=C/c2ccc(Cl)cc2)cc1 | 1090 |
| O=C1CC(c2nc3ccccc3n2CC(O)COc2ccccc2Cl)CN1Cc1ccccc1 (centres undefined) | 797 |
| Cc1nc(C(=O)Nc2ccc(C)c(F)c2)c(C)o1 | 946 |
| O=C(NCc1csc(-c2cccs2)n1)C1CCN(C(=O)c2ccc(F)cc2)CC1 | 743 |
| CCOc1cccc(-c2noc(Cn3c(=O)n(-c4cccc(OC)c4)c(=O)c4sccc43)n2)c1 | 970 |
| Cc1nc(-c2csc(S(=O)(=O)N3CCC(C(=O)NCc4ccccn4)CC3)c2)no1 | 636 |
| Cc1cc(C)cc(NC(=O)N2CCN(CCn3c(-c4ccncc4)nc4cccnc43)CC2)c1 | 627 |
| COc1ccccc1COC(=O)C1=CN(Cc2ccccc2)S(=O)(=O)N=C1C | 1130 |
| COc1ccc2[nH]c(=O)c(CCC(=O)N(C)CCc3ccccn3)cc2c1 | 578 |
| CCNS(=O)(=O)c1cc(-c2c(CC)noc2NC(C)=O)ccc1C | 698 |
| COC(=O)c1cccc(C(=O)Nc2ccc(C)cc2Cl)n1 | 1100 |
| CCOc1ccc(-n2c(CN3CCN(C(=O)NC(C)CC)CC3)nc3cccnc32)cc1 (centres undefined) | 650 |
| CCS(=O)(=O)N1CCCc2cc(C(=O)NC3CCCC3)ccc21 | 837 |
| CCCN1CCn2cc(S(=O)(=O)Nc3ccc(F)cc3)cc2C1=O | 750 |
| CC(=O)c1cccc(NC(=O)CC2COc3ccccc3NC2=O)c1 (centres undefined) | 676 |
| CCNC(=O)c1nc2cc(C)c(C)cc2n(CC)c1=O | 745 |
| Cc1ccc(-n2nc3c(N4CCCC(C(=O)N5CCOCC5)C4)nnc(C)c3c2C)cc1 (centres undefined) | 736 |
| COc1ccc(NC(=O)C(=O)c2cccn2C)c(OC)c1 | 976 |
| CCCNc1cc(N2CCCC(CCC(=O)NCC3CCCO3)C2)ncn1 (centres undefined) | 608 |
| Cc1cccc(C)c1NC(=O)Cn1c(=O)n(-c2ccccc2)c(=O)c2c1cc(C)n2C | 864 |

| SMILES | RP-LC retention time [s] |
| --- | --- |
| O=C(NCc1ccco1)N1CC2CN(S(=O)(=O)c3cccc(F)c3)CC(C1)O2 | 744 |
| O=C(CCc1nnn2c1CN(C(=O)Nc1ccccc1F)CC2)NC1CC1 | 618 |
| CCC(=O)NCc1nc2c(n1CC)CN(S(=O)(=O)c1ccccc1F)CC2 | 561 |
| CCOc1ccccc1-n1nnc(C(=O)OCc2nc(-c3ccccc3)oc2C)c1C | 1090 |
| Cc1cc(N(C)C)n2ncc(-c3ccc(Cl)cc3)c2n1 | 889 |
| CC(NC(=O)c1ccccc1)C(=O)N1CCN(c2cc(C(C)C)n3cnnc3n2)CC1 (centres undefined) | 604 |
| CCN1CCCn2cc(S(=O)(=O)Nc3cc(OC)cc(OC)c3)cc2C1=O | 704 |
| CSc1cccc(NC(=O)C2CCCN(C(=O)c3cc(C)cc(C)c3)C2)c1 (centres undefined) | 1010 |
| CN1CCCc2cc(C(=O)NC3CCCCCC3)sc21 | 755 |
| Cn1nc2ccc(S(=O)(=O)N3CCSCC3)cn2c1=O | 687 |
| Cc1ccc(-c2cc3n(n2)CCCN(C(=O)c2ccsc2)C3)cc1 | 845 |
| CCc1noc(NC(C)=O)c1-c1ccc(OC)c(S(=O)(=O)Nc2ccccc2OC)c1 | 791 |
| Cc1ccc(OCC(=O)Nc2cc3[nH]c(=O)[nH]c3cc2C)cc1 | 698 |
| COCCNCc1ccc(-c2cc(Cl)cc(Cl)c2)o1 | 722 |
| O=C(CN1c2ccc(F)cc2-c2ccccc2S1(=O)=O)N1CCCCCC1 | 958 |
| O=C(NCCc1cccs1)c1ccc(CN2CC(=O)N3CCCCC3C2=O)cc1 (centres undefined) | 692 |
| O=C1CCC2(CCN1)CCN(S(=O)(=O)c1ccc(Cl)cc1)CC2 | 758 |
| COc1ccccc1NC(=O)N1CC(c2nc(C)no2)C2(CCOCC2)C1 (centres undefined) | 676 |
| CCCOC(=O)C1=C(C)NC2=C(C(=O)C(C(=O)OC)C(C)C2)C1c1ccc(F)cc1 (centres undefined) | 958 |
| C=CCN1C(=O)COc2ccc(-c3nc(NC(=O)C4CC4)sc3C)cc21 | 887 |
| Cc1cc(C)cc(NC(=O)C2CCCN(c3nc4ccsc4c(=O)n3Cc3ccc(F)cc3)C2)c1 (centres undefined) | 1090 |
| COc1cccc(CNC(=O)C2(C)CCCN(C(=O)Nc3ccc(OC)c(OC)c3)C2)c1 (centres undefined) | 746 |
| CN(C)CCNC(=O)C1CCCN(c2ccc(=O)n(-c3cccc(Cl)c3)n2)C1 (centres undefined) | 929 |

| SMILES | RP-LC retention time [s] |
| --- | --- |
| O=C(CCS(=O)(=O)c1ccccc1)Nc1cc(-c2ccco2)nn1CCO | 643 |
| CN1c2cc(F)ccc2C(=O)NC12CCN(C(=O)NCc1ccc(F)cc1)CC2 | 754 |
| Cc1ccc2c(c1)N(S(C)(=O)=O)CCC(C(=O)Nc1cc(Cl)ccc1C)O2 (centres undefined) | 919 |
| CC1Cc2ccccc2N1C(=O)Cn1c(=O)n(C(C)C)c2ccc(S(=O)(=O)N3CCCC3)cc21 (centres undefined) | 963 |
| CCN(CC)C(=O)c1c(C)sc2ccn(C)c(=O)c12 | 639 |
| CCc1noc(NC(C)=O)c1-c1ccc(OC)c(S(=O)(=O)Nc2cccc(C(F)(F)F)c2)c1 | 862 |
| COCCc1noc(C2CN(S(=O)(=O)Cc3ccccc3)C2)n1 | 780 |
| O=C(O)C1CCN(S(=O)(=O)C2CC2)CC1 | 585 |
| O=C(c1ccc(Br)o1)N1CCC(c2cnn(-c3ccc(F)cc3)c2)CC1 | 984 |
| O=C(CC1CCCC1)N1CCCC(c2nc(-c3ccccc3)n[nH]2)C1 (centres undefined) | 801 |
| O=C(Nc1ccc2c(c1)OCO2)N1CCC(N2CCN(Cc3ccccc3)C(=O)C2=O)CC1 | 706 |
| Cc1ccc(-c2noc(CN3N=NC4C(=O)N(c5ccc(C)cc5)C(=O)C43)n2)cc1 (centres undefined) | 1020 |
| Cc1ncoc1C(=O)N1CCC(C2CCN(S(C)(=O)=O)CC2)C1 (centres undefined) | 642 |
| CC(C)c1ccc(S(=O)(=O)N2C[C@@H](F)C[C@H]2C(=O)N2CCc3ccccc3C2)cc1 | 1060 |
| COc1ccc(CNS(=O)(=O)c2cc3n(c2)CCN(C(C)C)C3=O)cc1 | 712 |
| CCCN1C(=O)C(CC(=O)NC2CCCCC2)Sc2ncccc21 (centres undefined) | 803 |
| COCCCNC(=O)N1CCCN(C2=NS(=O)(=O)C(c3ccccc3)=C2C)CC1 | 679 |
| Cc1ccc(NC(=O)c2ccc(=O)n(CCN3CCOCC3)c2)cc1 | 611 |
| Cc1oc(-c2ccc(C(=O)NCCCN3CCN(C)CC3)cc2)nc1CS(=O)c1ccccc1 (centres undefined) | 581 |
| CCn1c(=O)oc2cc(S(=O)(=O)N3CCN(C(=O)c4ccnn4C)CC3)ccc21 | 687 |
| Cc1ccc(-n2nc(N3CCCN(C(=O)Nc4cccc(C)c4)CC3)ccc2=O)cc1 | 802 |
| COc1ccccc1C(=O)N1CCC2(CC1)N=C(c1ccc(Cl)cc1)NO2 | 865 |
| O=C(Cn1ncn2nc(-c3cccs3)cc2c1=O)N1CCN(c2ccccn2)CC1 | 622 |

| SMILES | RP-LC retention time [s] |
| --- | --- |
| Cc1nc2cc(-c3noc(-c4cc(Cl)ccc4F)n3)ccc2o1 | 1150 |
| COc1ccccc1-c1noc(-c2nn(-c3ccc(Cl)cc3)ccc2=O)n1 | 832 |
| Cc1ccsc1C(=O)NC1CCN(c2cc(-c3ccc(F)cc3)[nH]n2)C1 (centres undefined) | 670 |
| Cc1ccc(-c2ncc3c(=O)n(CC(=O)NC(C)C)c(=O)n(C)c3n2)cc1 | 854 |
| Cc1ccnc(NC(=O)C2CCN(S(=O)(=O)c3cc(C(=O)N4CCCC4)n(C)c3)CC2)c1 | 674 |
| C=CCN1C(=O)COc2ccc(-c3nc(NC(=O)c4ccc(OC)c(OC)c4)sc3C)cc21 | 985 |
| Cc1cc(S(=O)(=O)N2CCCC(Cn3cnc4cccnc43)C2)ccc1Cl (centres undefined) | 866 |
| CN(C)S(=O)(=O)N(CC(=O)Nc1cc(C(F)(F)F)ccc1Cl)c1ccccc1 | 1090 |
| O=S(=O)(c1ccccc1)N1CC(c2nc(-c3ccncc3)no2)C1 | 688 |
| COc1ccc(OC)c(-c2ccc(=O)n(CCc3nc(-c4cccc(F)c4)no3)n2)c1 | 974 |
| CCc1ccc(C(=O)N2CCC3(C2)C(=O)Nc2ccccc23)cc1 (centres undefined) | 769 |
| CCC(C(=O)NCCOC)n1nc(C)c2nn(-c3ccccc3)c(C)c2c1=O (centres undefined) | 763 |
| CC(C)(C)c1ccc(S(=O)(=O)Nc2cccc(C(=O)O)c2)cc1 | 810 |
| Cc1csc(-n2nc(C)c(CC(=O)Nc3ccc(Cl)cc3)c2C)n1 | 997 |
| COCCOCc1nc(C2CCCN2S(=O)(=O)c2cccc3nsnc23)no1 (centres undefined) | 759 |
| Cc1nn(CCC(=O)NCCCN2CCc3ccccc3C2)c(=O)c2nn(-c3ccccc3)c(C)c12 | 648 |
| Cc1nn(CC(=O)NCCCN2CCCC2=O)c(=O)c2nc(-c3ccccc3)sc12 | 668 |
| Cc1nnc2ccc(N3CCC(C(=O)NC(C)CCc4ccccc4)CC3)nn12 (centres undefined) | 779 |
| CN1C(=O)c2cccn2CC1C(=O)NCc1ccc2c(c1)OCO2 (centres undefined) | 657 |
| O=S(=O)(c1cc(-c2nnc(C3CC3)o2)co1)N1CCN(c2ccccn2)CC1 | 640 |
